We go through 15 molecules from PubChem BioAssay AID248 (DTP/NCI, 2004).

The test system of this assay is L1210 leukemia ip in BDF1 mice, survival T/C. The assay is described as follows: NCI In Vivo Anticancer Drug Screen. Data for tumor model L1210 Leukemia (intraperitoneal) in B6D2F1 (BDF1) mice. The conditions noted are these: endpoint: mean survival time, higher = longer survival. An outline of the steps:
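Ratio derived from survival: compound-dosed mice over vehicle-dosed mice, all bearing a transplantable tumor.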

Setting [1] is: dose: 5.0 mg/kg/injection, schedule: Q01DX001 (ip), vehicle: other.
The mark [2] stands for this setting: dose: 10.0 mg/kg/injection, schedule: Q01DX001 (ip), vehicle: other.
The mark [3] stands for this setting: dose: 20.0 mg/kg/injection, schedule: Q01DX001 (ip), vehicle: other.
The mark [4] stands for this setting: dose: 40.0 mg/kg/injection, schedule: Q01DX001 (ip), vehicle: other.
Where [5] appears, read: dose: 80.0 mg/kg/injection, schedule: Q01DX001 (ip), vehicle: other.
Setting [6] is: dose: 100.0 mg/kg/injection, schedule: Q04DX002 (ip), vehicle: saline with Tween-80.
Setting [7] is: dose: 200.0 mg/kg/injection, schedule: Q04DX002 (ip), vehicle: saline with Tween-80.
[8] abbreviates: dose: 50.0 mg/kg/injection, schedule: Q01DX009 (ip), vehicle: saline with Tween-80.
The mark [9] stands for this setting: dose: 100.0 mg/kg/injection, schedule: Q01DX009 (ip), vehicle: saline with Tween-80.
The mark [10] stands for this setting: dose: 200.0 mg/kg/injection, schedule: Q01DX009 (ip), vehicle: saline with Tween-80.

“And” between values parts separate entries of the source, which are not always exact repeats. Equal values may be shown once. Toxic doses and inconclusive results are not listed.

Turning to `CC(C)(O)/C=C/C(=O)[C@](C)(O)[C@H]1[C@H](O)C[C@@]2(C)[C@@H]3CC=C4[C@@H](C=C(O)C(=O)C4(C)C)[C@]3(C)C(=O)C[C@]12C`, the T/C was 104 % of control (dose: 100.0 micrograms/kg/injection, schedule: Q01DX001 (sc), vehicle: steriod suspending solution); 102 % of control (dose: 200.0 micrograms/kg/injection, schedule: Q01DX001 (sc), vehicle: steriod suspending solution); 104 % of control (dose: 400.0 micrograms/kg/injection, schedule: Q01DX001 (sc), vehicle: steriod suspending solution); 96 % of control (dose: 800.0 micrograms/kg/injection, schedule: Q01DX001 (sc), vehicle: steriod suspending solution).
Consider `CCC(C)(CO)N=Cc1ccccc1O.CCC(C)(O)/N=C/c1ccccc1O.[Cu].[Cu]` (stereo not given), for which the T/C is 100 % of control (dose: 9.5 mg/kg/injection, schedule: Q01DX001 (ip), vehicle: other); 97 % of control (dose: 19.0 mg/kg/injection, schedule: Q01DX001 (ip), vehicle: other); 86 % of control (dose: 38.0 mg/kg/injection, schedule: Q01DX001 (ip), vehicle: other).
Consider `CCOC(=O)Nc1cc(NC(c2ccccc2)c2ccccc2)c2[nH]cnc2n1`, for which the T/C reads like this: (dose: 4.0 mg/kg/injection, schedule: Q01DX009 (ip), vehicle: other) 92 % of control; under setting [1], 104 % of control; (dose: 7.0 mg/kg/injection, schedule: Q01DX009 (ip), vehicle: other) 93 % of control; (dose: 9.0 mg/kg/injection, schedule: Q01DX009 (ip), vehicle: other) 95 % of control; (dose: 9.0 mg/kg/injection, schedule: Q01DX009 (ip), vehicle: steriod suspending solution) 97 % of control; under setting [2], 102 % of control. Moreover, the T/C by setting is: (dose: 12.0 mg/kg/injection, schedule: Q01DX009 (ip), vehicle: other) 92 % of control; (dose: 13.0 mg/kg/injection, schedule: Q01DX009 (ip), vehicle: other) 95 % of control; (dose: 13.0 mg/kg/injection, schedule: Q01DX009 (ip), vehicle: steriod suspending solution) 97 % of control; (dose: 18.0 mg/kg/injection, schedule: Q01DX001 (ip), vehicle: steriod suspending solution) 98 % of control; under setting [3], 100 % of control and 106 % of control; (dose: 20.0 mg/kg/injection, schedule: Q01DX009 (ip), vehicle: other) 95 % of control and 112 % of control. For the same molecule, the T/C is, setting by setting: (dose: 20.0 mg/kg/injection, schedule: Q01DX009 (ip), vehicle: steriod suspending solution) 103 % of control; (dose: 26.0 mg/kg/injection, schedule: Q01DX001 (ip), vehicle: steriod suspending solution) 100 % of control; (dose: 30.0 mg/kg/injection, schedule: Q01DX001 (ip), vehicle: other) 119 % of control; (dose: 30.0 mg/kg/injection, schedule: Q01DX009 (ip), vehicle: other) 105 % of control; (dose: 30.0 mg/kg/injection, schedule: Q01DX009 (ip), vehicle: steriod suspending solution) 124 % of control; under setting [4], 164 % of control. In addition, the T/C (dose: 40.0 mg/kg/injection, schedule: Q01DX001 (ip), vehicle: steriod suspending solution) was 105 % of control; the T/C (dose: 50.0 mg/kg/injection, schedule: Q01DX001 (ip), vehicle: other) was 155 % of control; the T/C (dose: 60.0 mg/kg/injection, schedule: Q01DX001 (ip), vehicle: other) is 119 % of control; the T/C (dose: 60.0 mg/kg/injection, schedule: Q01DX001 (ip), vehicle: steriod suspending solution) is 111 % of control; the T/C under setting [5] was 107 % of control; the T/C (dose: 100.0 mg/kg/injection, schedule: Q01DX001 (ip), vehicle: other) was 107 % of control.
For the molecule `O=[N+]([O-])c1ccc2c(c1)S(=O)c1cc([N+](=O)[O-])c(Br)cc1-2` (stereo not given) (tested in a mixture with another compound), the T/C is 96 % of control (dose: 50.0 mg/kg/injection, schedule: Q04DX002 (ip), vehicle: saline with Tween-80); 96 % of control under setting [6]; 96 % of control under setting [7].
Consider `Cc1cccc(C)c1NC(=O)OCCSc1ccc(Cl)cc1`, for which the T/C is 115 % of control under setting [8], 96 % of control under setting [9] and 93 % of control under setting [10].
In the case of `Fc1c(F)c(F)c([Si](c2c(F)c(F)c(F)c(F)c2F)(c2c(F)c(F)c(F)c(F)c2F)c2c(F)c(F)c(F)c(F)c2F)c(F)c1F`, the T/C (dose: 100.0 mg/kg/injection, schedule: Q01DX001 (ip), vehicle: saline with Tween-80) is 96 % of control; the T/C (dose: 200.0 mg/kg/injection, schedule: Q01DX001 (ip), vehicle: saline with Tween-80) was 91 % of control; the T/C (dose: 400.0 mg/kg/injection, schedule: Q01DX001 (ip), vehicle: saline with Tween-80) is 86 % of control.
As to `[N-]=[N+]=C1N=CN=C1c1ncnn1Cc1ccccc1`, the T/C under setting [1] is 105 % of control; the T/C under setting [2] was 97 % of control; the T/C under setting [3] was 94 % of control; the T/C under setting [4] is 94 % of control; the T/C under setting [5] was 101 % of control.
In the case of `Nc1nnc(N)c2nc(-c3ccccc3)c(-c3ccccc3)nc12`, the T/C is 101 % of control (dose: 100.0 mg/kg/injection, schedule: Q01DX009 (ip), vehicle: Klucel (hydroxypropylcellulose) (HPC)) and 101 % of control (dose: 200.0 mg/kg/injection, schedule: Q01DX009 (ip), vehicle: Klucel (hydroxypropylcellulose) (HPC)).
With `CC(=N\O)/C(=N\O)C(=O)c1ccccc1`, the T/C under setting [9] was 110 % of control; the T/C (dose: 100.0 mg/kg/injection, schedule: Q04DX003 (ip), vehicle: saline with Tween-80) was 96 % of control; the T/C under setting [10] was 95 % of control; the T/C (dose: 200.0 mg/kg/injection, schedule: Q04DX003 (ip), vehicle: saline with Tween-80) is 101 % of control; the T/C (dose: 400.0 mg/kg/injection, schedule: Q04DX003 (ip), vehicle: saline with Tween-80) is 98 % of control.
`ClC1(c2ccccc2)c2ccccc2C(Cl)(c2ccccc2)c2ccccc21` (stereo not given): the T/C under setting [6] was 98 % of control; the T/C under setting [7] was 92 % of control; the T/C (dose: 400.0 mg/kg/injection, schedule: Q04DX002 (ip), vehicle: saline with Tween-80) was 92 % of control.
As for `CCOC(CNC(=S)Nc1ccccc1)OCC`, the T/C reads like this: (dose: 100.0 mg/kg/injection, schedule: Q01DX001 (ip), vehicle: carboxymethylcellulose (CMC)) 89 % of control; (dose: 200.0 mg/kg/injection, schedule: Q01DX001 (ip), vehicle: carboxymethylcellulose (CMC)) 95 % of control; (dose: 400.0 mg/kg/injection, schedule: Q01DX001 (ip), vehicle: carboxymethylcellulose (CMC)) 95 % of control.
`CCCCCCCCCCCCCCCCCCNc1ccc(C(=O)OCC)cc1`: the T/C is 94 % of control (dose: 37.5 mg/kg/injection, schedule: Q01DX009 (ip), vehicle: saline); 86 % of control (dose: 75.0 mg/kg/injection, schedule: Q01DX001 (ip), vehicle: saline); 95 % of control (dose: 75.0 mg/kg/injection, schedule: Q01DX009 (ip), vehicle: saline); 87 % of control (dose: 75.0 mg/kg/injection, schedule: Q04DX003 (ip), vehicle: saline); 96 % of control (dose: 150.0 mg/kg/injection, schedule: Q01DX009 (ip), vehicle: saline); 87 % of control (dose: 150.0 mg/kg/injection, schedule: Q04DX003 (ip), vehicle: saline). The T/C is, setting by setting: (dose: 300.0 mg/kg/injection, schedule: Q01DX001 (ip), vehicle: saline) 88 % of control; (dose: 300.0 mg/kg/injection, schedule: Q04DX003 (ip), vehicle: saline) 92 % of control.
On to `Nc1ccn(C2OC(CO)C(O)C(O)C2N)c(=O)n1` (stereo not given), for which the T/C is 97 % of control (dose: 100.0 mg/kg/injection, schedule: Q01DX001 (ip), vehicle: saline); 103 % of control (dose: 200.0 mg/kg/injection, schedule: Q01DX001 (ip), vehicle: saline); 100 % of control (dose: 400.0 mg/kg/injection, schedule: Q01DX001 (ip), vehicle: saline).
Consider `COc1cc(OC)c2cc1Cc1cc(c(OC)cc1OC)Cc1cc(c(OC)cc1OC)Cc1cc(c(OC)cc1OC)C2`, for which the T/C reads like this: (dose: 100.0 mg/kg/injection, schedule: Q01DX009 (ip), vehicle: saline) 94 % of control; (dose: 200.0 mg/kg/injection, schedule: Q01DX009 (ip), vehicle: saline) 86 % of control; (dose: 400.0 mg/kg/injection, schedule: Q01DX009 (ip), vehicle: saline) 86 % of control.
On to `C=C1C2C3CCC(C3)C2C(O)C2C3CCC(C3)C12` (stereo not given), for which the T/C runs as follows: under setting [8], 96 % of control; under setting [9], 93 % of control; under setting [10], 93 % of control.
